Reference: PMC10056986 (Pharmaceuticals, 2023)
Like-named read-outs stand apart in the source and are kept apart here.

What was measured:
[1] = biological target: influenza virus polymerase (PB1, PB2, NP, PA from A/California/04/2009 (H1N1) pdm09) (Influenza A virus, UniProt C3W5R8+C3W5R9); type: cell-based
ABL1 = ABL1 (Homo sapiens, UniProt P00519); experiment: biochemical
JAK2 = JAK2 (Homo sapiens, UniProt O60674); experiment: biochemical
op-mu = op-mu (Homo sapiens, UniProt P35372); experiment: cell-based
Alpha1a = Alpha1a (Homo sapiens, UniProt P35348); experiment: cell-based
M3 [2] = biological target: T1, M3 (Homo sapiens, UniProt P20309); experiment: cell-based
Beta2 [3] = biological target: T2, Beta2 (Homo sapiens, UniProt P07550); experiment: cell-based
5HT2A [4] = biological target: T3, 5HT2A (Homo sapiens, UniProt P28223); experiment: cell-based
CB1 = CB1 (Homo sapiens, UniProt P21554); experiment: cell-based
V1a [5] = biological target: T4, V1a (Homo sapiens, UniProt P37288); experiment: cell-based
M3 [6] = biological target: T1, M3; experiment: cell-based; remark: listed apart in the source
Beta2 [7] = biological target: T2, Beta2; experiment: cell-based; remark: listed apart in the source
H1 = H1 (Homo sapiens, UniProt P35367); experiment: cell-based
H2 = H2 (Homo sapiens, UniProt P25021); experiment: cell-based
CCKa = biological target: T5, CCKa (Homo sapiens, UniProt P32238); experiment: cell-based
T5 sequence (P32238 1-428): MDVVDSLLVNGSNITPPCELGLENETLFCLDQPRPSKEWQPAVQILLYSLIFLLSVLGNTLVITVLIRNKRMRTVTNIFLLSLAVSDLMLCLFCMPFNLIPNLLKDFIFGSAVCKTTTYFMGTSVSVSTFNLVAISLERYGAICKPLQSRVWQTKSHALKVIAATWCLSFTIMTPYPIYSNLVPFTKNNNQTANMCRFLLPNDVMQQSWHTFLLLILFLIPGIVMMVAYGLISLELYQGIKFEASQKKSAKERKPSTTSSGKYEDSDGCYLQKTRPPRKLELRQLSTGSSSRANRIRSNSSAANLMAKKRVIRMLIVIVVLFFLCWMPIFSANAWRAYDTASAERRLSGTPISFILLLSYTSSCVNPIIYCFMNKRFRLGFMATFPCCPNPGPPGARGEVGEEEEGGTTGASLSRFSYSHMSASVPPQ

5HT1A = 5HT1A (Homo sapiens, UniProt P08908); experiment: cell-based
5HT2A [8] = biological target: T3, 5HT2A; experiment: cell-based; remark: listed apart in the source
V1a [9] = biological target: T4, V1a; experiment: cell-based; remark: listed apart in the source
[10] = system: Influenza virus A/Mal/302/54 (H1N1); experiment: microbe, parasite or virus in culture; type: cell-based; conditions: H1N1, MDCK, read-out: EC50 (mean ± SD)
Influenza virus B/Lee/40 = experiment: microbe, parasite or virus in culture; type: cell-based; conditions: MDCK, read-out: EC50 (mean ± SD)
[11] = system: Influenza virus A/California/2/2014 (H3N2); experiment: microbe, parasite or virus in culture; type: cell-based; conditions: H3N2, MDCK, read-out: EC50 (mean ± SD)
HPIV-3 C243 = experiment: microbe, parasite or virus in culture; type: cell-based, human parainfluenza virus type 3; conditions: Human respirovirus 3, LLC-MK2, read-out: EC50 for Virus
in vivo = conditions: both, beagle, dog
in vitro [12] = conditions: dog, CC50 (mean ± SD)
in vitro [13] = conditions: human
in vitro [14] = experiment: in vitro
[15] = system: H1N1 and H3N2 influenza A virus strains; experiment: in vitro; conditions: dog
Aurora A = Aurora A (Homo sapiens, UniProt O14965); experiment: biochemical
CAMK2 alpha = CAMK2 alpha (Homo sapiens, UniProt Q9UQM7); experiment: biochemical
KDR = KDR (Homo sapiens, UniProt P35968); experiment: biochemical
MINK = MINK (Homo sapiens, UniProt Q8N4C8); experiment: biochemical
[16] = 10,000 nM, read-out: Inhibition at Maximum Concentration (%)

T3 sequence (P28223 whole entry): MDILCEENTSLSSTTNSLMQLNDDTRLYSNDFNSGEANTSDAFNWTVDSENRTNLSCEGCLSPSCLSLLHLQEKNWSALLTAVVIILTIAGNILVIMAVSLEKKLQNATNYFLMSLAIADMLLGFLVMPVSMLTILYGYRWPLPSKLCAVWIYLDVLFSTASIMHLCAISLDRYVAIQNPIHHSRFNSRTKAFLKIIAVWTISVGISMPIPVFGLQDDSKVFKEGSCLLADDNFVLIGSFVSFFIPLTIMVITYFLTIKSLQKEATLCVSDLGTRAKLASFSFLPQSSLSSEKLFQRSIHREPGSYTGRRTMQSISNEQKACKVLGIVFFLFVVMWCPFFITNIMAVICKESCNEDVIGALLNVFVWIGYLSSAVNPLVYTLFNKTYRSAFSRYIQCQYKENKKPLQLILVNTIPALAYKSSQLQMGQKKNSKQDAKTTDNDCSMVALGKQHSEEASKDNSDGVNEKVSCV
T2 sequence (P07550 whole entry): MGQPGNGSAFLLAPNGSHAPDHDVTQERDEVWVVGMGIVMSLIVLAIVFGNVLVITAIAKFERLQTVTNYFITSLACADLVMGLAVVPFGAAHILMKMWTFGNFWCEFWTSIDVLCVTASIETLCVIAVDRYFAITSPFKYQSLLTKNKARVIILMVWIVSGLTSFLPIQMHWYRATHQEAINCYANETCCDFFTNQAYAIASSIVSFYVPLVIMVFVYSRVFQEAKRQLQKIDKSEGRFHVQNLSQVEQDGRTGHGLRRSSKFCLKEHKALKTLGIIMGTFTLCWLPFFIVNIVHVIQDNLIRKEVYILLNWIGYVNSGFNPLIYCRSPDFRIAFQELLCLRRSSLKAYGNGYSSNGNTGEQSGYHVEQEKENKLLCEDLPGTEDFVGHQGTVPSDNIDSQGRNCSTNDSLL
T4 sequence (P37288 whole entry): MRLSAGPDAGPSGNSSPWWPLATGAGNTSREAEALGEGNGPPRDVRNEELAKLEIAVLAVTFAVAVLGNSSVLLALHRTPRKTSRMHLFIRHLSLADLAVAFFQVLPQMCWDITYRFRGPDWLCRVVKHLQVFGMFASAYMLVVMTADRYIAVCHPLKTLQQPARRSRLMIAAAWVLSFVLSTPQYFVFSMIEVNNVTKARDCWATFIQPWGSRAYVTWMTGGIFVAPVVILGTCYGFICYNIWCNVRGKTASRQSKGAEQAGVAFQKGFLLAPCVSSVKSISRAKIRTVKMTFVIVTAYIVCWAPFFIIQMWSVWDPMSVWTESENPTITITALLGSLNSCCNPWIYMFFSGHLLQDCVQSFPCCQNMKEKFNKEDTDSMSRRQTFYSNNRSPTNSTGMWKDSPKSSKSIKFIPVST
T1 sequence (P20309 whole entry): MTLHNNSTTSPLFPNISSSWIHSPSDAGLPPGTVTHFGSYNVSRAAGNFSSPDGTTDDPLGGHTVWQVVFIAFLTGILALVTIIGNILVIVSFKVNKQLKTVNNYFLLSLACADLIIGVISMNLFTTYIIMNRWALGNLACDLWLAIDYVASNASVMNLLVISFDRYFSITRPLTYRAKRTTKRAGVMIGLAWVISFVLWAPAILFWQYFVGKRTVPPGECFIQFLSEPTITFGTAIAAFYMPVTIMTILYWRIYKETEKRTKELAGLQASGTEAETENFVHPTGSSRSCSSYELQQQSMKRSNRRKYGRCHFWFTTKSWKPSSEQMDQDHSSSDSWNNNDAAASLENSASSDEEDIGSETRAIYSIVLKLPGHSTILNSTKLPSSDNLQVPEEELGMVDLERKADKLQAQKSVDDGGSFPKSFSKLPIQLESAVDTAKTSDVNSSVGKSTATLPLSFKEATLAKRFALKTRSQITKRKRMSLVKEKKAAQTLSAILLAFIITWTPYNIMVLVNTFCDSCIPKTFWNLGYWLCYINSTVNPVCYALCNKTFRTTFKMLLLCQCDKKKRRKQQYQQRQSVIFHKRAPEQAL
Sequence of H2 (P25021 whole entry): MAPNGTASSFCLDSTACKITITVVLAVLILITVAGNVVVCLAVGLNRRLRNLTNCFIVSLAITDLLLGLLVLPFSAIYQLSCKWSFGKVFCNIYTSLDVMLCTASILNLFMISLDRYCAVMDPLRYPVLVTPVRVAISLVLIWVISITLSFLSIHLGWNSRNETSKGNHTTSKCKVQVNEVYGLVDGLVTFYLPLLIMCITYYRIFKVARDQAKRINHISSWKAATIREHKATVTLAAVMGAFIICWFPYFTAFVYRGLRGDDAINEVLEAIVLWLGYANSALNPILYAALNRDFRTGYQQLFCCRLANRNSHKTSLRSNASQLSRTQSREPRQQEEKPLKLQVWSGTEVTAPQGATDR
Sequence of H1 (P35367 whole entry): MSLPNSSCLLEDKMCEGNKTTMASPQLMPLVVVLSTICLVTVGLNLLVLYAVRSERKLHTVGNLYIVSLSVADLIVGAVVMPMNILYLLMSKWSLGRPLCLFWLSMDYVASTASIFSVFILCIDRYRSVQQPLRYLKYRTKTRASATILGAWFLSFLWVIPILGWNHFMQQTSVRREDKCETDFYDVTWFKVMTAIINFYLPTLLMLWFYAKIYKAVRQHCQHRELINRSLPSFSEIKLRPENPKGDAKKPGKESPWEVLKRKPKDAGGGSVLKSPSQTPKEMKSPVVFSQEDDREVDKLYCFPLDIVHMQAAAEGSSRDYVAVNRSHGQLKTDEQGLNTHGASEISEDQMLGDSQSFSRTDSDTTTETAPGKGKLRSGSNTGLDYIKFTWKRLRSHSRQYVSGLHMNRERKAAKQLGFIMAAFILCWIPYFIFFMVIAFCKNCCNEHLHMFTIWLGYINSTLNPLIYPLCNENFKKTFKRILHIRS
Sequence of 5HT1A (P08908 whole entry): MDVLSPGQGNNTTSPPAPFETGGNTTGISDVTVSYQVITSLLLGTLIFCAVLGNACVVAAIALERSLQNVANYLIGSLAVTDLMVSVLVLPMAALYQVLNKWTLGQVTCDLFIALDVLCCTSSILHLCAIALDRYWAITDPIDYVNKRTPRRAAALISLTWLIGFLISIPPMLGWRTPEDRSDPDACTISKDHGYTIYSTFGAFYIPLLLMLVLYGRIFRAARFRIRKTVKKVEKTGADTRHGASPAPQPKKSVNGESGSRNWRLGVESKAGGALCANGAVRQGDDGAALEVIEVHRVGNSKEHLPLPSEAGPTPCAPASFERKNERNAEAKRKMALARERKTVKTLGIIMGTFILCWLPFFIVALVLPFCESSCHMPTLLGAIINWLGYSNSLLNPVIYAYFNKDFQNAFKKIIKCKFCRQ
Sequence of op-mu (P35372 whole entry): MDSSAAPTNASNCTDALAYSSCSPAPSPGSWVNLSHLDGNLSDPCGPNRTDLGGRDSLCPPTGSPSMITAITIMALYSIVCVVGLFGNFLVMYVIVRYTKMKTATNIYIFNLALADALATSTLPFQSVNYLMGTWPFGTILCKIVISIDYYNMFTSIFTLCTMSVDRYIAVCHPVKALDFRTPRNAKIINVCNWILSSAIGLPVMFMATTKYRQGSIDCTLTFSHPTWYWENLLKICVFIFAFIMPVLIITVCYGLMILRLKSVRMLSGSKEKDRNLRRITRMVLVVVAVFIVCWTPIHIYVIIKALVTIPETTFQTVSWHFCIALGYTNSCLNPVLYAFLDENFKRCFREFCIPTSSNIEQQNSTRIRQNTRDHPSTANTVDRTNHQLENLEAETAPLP
Sequence of Alpha1a (P35348 whole entry): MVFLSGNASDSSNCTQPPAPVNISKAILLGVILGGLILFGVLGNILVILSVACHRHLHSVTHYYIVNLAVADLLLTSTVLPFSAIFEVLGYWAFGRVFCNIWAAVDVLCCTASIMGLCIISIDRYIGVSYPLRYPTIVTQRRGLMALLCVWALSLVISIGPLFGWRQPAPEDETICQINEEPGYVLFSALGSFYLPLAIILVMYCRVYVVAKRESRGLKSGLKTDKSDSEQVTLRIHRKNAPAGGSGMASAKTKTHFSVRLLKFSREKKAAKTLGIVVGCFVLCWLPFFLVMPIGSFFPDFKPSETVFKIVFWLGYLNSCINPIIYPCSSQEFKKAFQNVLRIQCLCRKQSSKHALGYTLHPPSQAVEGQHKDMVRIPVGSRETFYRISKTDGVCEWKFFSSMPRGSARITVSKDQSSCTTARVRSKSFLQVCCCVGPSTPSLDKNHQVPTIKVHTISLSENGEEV
Sequence of CB1 (P21554 whole entry): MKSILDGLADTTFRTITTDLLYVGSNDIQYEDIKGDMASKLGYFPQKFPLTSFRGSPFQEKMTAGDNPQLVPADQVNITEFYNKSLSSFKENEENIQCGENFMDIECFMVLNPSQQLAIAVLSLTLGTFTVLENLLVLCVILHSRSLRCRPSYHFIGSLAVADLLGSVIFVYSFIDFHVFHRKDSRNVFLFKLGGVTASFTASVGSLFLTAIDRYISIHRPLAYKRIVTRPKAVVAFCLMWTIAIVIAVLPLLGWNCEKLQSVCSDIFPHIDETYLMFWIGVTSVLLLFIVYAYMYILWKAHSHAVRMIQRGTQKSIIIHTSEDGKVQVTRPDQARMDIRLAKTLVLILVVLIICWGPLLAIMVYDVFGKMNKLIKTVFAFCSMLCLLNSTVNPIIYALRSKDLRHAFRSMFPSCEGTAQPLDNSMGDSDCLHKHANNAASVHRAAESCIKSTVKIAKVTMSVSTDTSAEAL
Sequence of Aurora A (O14965 whole entry): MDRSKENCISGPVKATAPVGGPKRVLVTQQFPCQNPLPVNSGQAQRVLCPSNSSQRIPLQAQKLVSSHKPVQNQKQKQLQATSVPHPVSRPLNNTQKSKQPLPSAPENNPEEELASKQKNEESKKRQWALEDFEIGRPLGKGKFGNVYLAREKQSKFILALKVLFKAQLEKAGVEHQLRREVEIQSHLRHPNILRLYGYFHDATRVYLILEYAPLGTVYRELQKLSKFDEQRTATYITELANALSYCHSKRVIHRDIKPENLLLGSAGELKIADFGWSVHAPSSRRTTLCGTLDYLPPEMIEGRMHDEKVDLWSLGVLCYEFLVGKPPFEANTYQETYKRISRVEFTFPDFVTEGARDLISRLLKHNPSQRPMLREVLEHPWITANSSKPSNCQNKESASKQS

## O=C(O)[C@H]1C2CCC(CC2)[C@@H]1Nc1nc(-c2n[nH]c3ncc(F)cc23)nc(C2CC2)c1F [ZSP1273]
[1]; read-out: IC50, Mean ± SEM
  IC50: 0.000562 ± 0.000116 µM
[1]; read-out: IC50, experiment 1
  IC50: 0.000533 µM
[1]; read-out: IC50, experiment 2
  IC50: 0.000464 µM
[1]; read-out: IC50, experiment 3
  IC50: 0.00069 µM
ABL1
  IC50: > 10 µM
JAK2
  IC50: > 10 µM
op-mu
  EC50: > 12 µM
op-mu; 12,000 nM
  Activity at Maximum Concentration (%): −3.45%
Alpha1a
  EC50: > 12 µM
Alpha1a; 12,000 nM
  Activity at Maximum Concentration (%): −2.93%
M3 [2]
  EC50: > 12 µM
M3 [2]; 12,000 nM
  Activity at Maximum Concentration (%): −2.89%
Beta2 [3]
  EC50: > 12 µM
Beta2 [3]; 12,000 nM
  Activity at Maximum Concentration (%): 1.43%
5HT2A [4]
  EC50: > 12 µM
5HT2A [4]; 12,000 nM
  Activity at Maximum Concentration (%): −21.27%
CB1
  EC50: > 12 µM
CB1; 12,000 nM
  Activity at Maximum Concentration (%): −12.1%
V1a [5]
  EC50: > 12 µM
V1a [5]; 12,000 nM
  Activity at Maximum Concentration (%): 6.27%
M3 [6]
  IC50: > 10 µM
M3 [6]; [16]
  inhibition at 10 µM: -4.78%
Beta2 [7]
  IC50: > 10 µM
Beta2 [7]; [16]
  inhibition at 10 µM: -33.2%
H1
  IC50: > 10 µM
H1; [16]
  inhibition at 10 µM: 13.4%
H2
  IC50: > 10 µM
H2; [16]
  inhibition at 10 µM: 42.4%
CCKa
  IC50: > 10 µM
CCKa; [16]
  inhibition at 10 µM: -17.6%
5HT1A
  IC50: > 10 µM
5HT1A; [16]
  inhibition at 10 µM: 19%
5HT2A [8]
  IC50: > 10 µM
5HT2A [8]; [16]
  inhibition at 10 µM: 2.56%
V1a [9]
  IC50: > 10 µM
V1a [9]; [16]
  inhibition at 10 µM: 7.24%
[10]
  EC50: 0.028 ± 0.011 nM
Influenza virus B/Lee/40
  EC50: > 0.001 µM
[11]
  EC50: 0.01 ± 0.0002 nM
HPIV-3 C243
  EC50: > 10 µM
In vivo; iv, 1 mg/kg
  AUC(0-t): 791 ± 329 ng·h/mL
  Vd: 0.47 ± 0.0848 L/kg
  clearance: 25.8 ± 7.6 mL/min/kg
  half-life: 27.4 ± 10.1 min
In vivo; po, 1 mg/kg
  AUC(0-t): 211 ± 62.4 ng·h/mL
  Cmax: 292 ± 78.2 ng/mL
  Tmax: 27.5 ± 6.12 min
  bioavailability: 26.7%
In vivo; po, 5 mg/kg
  AUC(0-t): 1210 ± 641 ng·h/mL
  Cmax: 1450 ± 800 ng/mL
  Tmax: 32.5 ± 14.8 min
In vivo; po, 15 mg/kg
  AUC(0-t): 5030 ± 1960 ng·h/mL
  Cmax: 5800 ± 2150 ng/mL
  Tmax: 27.5 ± 17.5 min
In vitro [12]
  CC50: 1.63 ± 0.87 µM
In vitro [13]
  CC50: > 10 µM
In vitro [14]
  CC50: > 10 µM
[15]
  selectivity ratio: > 25000
Aurora A
  IC50: 0.527 µM
CAMK2 alpha
  IC50: > 10 µM
KDR
  IC50: > 10 µM
MINK
  IC50: > 10 µM
